This is an account of results in ChEMBL document CHEMBL1201862, “PubChem BioAssay data set” (2004).

The source made the active and inactive calls. Cut-off read from the data, not from the text of the source: actives have a measured IC50 and inactives only a lower limit.

The term IC50 denotes the concentration needed to halve the response being measured.

Test [1] has as its target T1, Sentrin-specific protease 7 (Homo sapiens, UniProt Q9BQF6).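 Note: Luminescence-based dose-response confirmation of ultra-high-throughput screening hits, measuring inhibition of SENP7.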
T1 sequence (Q9BQF6 whole entry): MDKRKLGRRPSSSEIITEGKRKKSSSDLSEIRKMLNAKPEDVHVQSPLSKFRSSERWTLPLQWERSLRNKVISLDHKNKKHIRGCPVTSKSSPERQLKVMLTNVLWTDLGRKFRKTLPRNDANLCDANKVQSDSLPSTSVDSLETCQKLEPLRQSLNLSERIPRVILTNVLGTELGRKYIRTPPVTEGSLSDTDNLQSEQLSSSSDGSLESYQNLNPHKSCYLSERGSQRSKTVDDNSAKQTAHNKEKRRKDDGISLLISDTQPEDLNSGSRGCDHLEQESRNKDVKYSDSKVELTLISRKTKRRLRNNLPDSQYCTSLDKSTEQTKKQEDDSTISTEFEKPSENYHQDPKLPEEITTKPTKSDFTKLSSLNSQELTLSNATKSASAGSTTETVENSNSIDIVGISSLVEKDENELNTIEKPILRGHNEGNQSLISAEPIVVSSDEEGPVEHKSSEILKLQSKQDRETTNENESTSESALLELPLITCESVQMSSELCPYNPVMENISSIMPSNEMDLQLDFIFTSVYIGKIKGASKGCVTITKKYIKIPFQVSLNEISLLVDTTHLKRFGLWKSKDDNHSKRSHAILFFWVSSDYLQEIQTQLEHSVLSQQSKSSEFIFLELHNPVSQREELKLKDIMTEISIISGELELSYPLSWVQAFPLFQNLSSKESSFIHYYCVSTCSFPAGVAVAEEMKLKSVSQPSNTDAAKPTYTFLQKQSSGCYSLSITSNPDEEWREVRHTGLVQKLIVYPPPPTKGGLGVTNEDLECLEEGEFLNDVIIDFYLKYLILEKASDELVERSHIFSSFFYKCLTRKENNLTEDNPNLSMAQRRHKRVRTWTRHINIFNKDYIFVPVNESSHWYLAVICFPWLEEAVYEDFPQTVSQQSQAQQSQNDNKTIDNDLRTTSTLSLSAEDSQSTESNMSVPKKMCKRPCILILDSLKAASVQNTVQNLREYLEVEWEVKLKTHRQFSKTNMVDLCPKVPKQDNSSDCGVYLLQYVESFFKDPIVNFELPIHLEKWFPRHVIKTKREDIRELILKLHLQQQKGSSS
Type of test: functional.

Test [2] concerns the target T2, Apoptotic protease-activating factor 1 (Homo sapiens, UniProt O14727).
T2 sequence (O14727 whole entry): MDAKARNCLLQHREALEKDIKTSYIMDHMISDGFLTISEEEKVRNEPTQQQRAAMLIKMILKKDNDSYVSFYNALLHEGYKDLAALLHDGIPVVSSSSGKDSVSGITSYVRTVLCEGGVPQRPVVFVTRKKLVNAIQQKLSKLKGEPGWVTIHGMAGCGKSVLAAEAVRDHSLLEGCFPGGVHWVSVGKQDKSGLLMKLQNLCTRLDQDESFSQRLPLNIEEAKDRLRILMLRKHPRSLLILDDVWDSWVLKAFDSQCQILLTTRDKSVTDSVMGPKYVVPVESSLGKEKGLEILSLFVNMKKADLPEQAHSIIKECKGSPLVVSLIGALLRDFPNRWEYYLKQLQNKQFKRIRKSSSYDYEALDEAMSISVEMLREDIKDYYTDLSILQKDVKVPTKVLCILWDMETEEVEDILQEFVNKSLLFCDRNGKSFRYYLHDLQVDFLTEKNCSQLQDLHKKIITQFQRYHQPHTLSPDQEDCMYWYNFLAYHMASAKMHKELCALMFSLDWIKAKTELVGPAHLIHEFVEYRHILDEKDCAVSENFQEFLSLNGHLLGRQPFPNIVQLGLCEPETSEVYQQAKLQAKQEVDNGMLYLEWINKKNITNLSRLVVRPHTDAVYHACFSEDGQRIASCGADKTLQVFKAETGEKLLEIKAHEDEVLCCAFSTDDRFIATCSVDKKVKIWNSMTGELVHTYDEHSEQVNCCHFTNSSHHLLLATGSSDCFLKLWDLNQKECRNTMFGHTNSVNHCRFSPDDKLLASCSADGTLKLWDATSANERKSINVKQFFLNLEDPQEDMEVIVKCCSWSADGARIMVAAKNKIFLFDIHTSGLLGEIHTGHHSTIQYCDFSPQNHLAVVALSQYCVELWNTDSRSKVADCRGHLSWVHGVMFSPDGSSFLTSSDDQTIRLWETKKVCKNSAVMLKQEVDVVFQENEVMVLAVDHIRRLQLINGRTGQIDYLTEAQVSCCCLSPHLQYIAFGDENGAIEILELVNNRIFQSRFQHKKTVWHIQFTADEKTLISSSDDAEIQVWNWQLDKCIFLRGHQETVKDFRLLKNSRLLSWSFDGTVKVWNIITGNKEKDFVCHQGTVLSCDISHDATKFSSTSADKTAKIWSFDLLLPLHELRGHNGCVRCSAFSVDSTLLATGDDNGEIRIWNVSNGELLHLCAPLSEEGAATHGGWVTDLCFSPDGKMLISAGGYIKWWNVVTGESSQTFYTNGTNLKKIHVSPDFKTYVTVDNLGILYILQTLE
The class given is functional.

As to `Clc1ccc(C2=CSC3=Nc4cccc5cccc(c45)N23)cc1`, the IC50 in test [1] was 5.65 µM (active); in test [2] it was 17.9 µM (active).
